Target: T1, RIPK2 enzyme (Homo sapiens, UniProt O43353)
T1 construct: purchased Carna 09-128
Assay: RIPK2 inhibition (ADP-Glo Kinase Assay)
Format: biochemical
Settings: RIPK2 5 nM, ATP 150 μM, MBP substrate, read-out: RIPK2 IC50
Summary of the method: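 Swine MBP substrate; compound and 5 nM RIPK2 first mixed for 30 min at room temperature; buffer pH 7.5 HEPES 50 mM with 10 mM MgCl2, 2 mM DTT, 1 mM EGTA, Brij-35, BSA.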

T1 sequence (O43353 1-299 limits assumed): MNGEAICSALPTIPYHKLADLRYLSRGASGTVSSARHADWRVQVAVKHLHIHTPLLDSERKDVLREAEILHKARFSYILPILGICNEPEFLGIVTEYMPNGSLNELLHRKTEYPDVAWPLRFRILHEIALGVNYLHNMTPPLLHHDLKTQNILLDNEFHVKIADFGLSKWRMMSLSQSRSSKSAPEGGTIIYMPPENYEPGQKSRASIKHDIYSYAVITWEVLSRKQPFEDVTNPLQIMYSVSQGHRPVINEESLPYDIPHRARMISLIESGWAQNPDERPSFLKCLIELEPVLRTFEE

IC50	Structure (SMILES)
< 2.5 nM	Cc1c(Oc2ccnc3ccc(S(=O)(=O)C4CC(O)C4)cc23)ccc(CC(=O)Nc2cnn(C(C)(C)C)c2)c1F (single isomer, unassigned) [Compound 286, N-(1-(tert-butyl)-1H-pyrazol-4-yl)-2-(2-fluoro-4-((6-((-3-hydroxycyclobutyl)sulfonyl)quinolin-4-yl)oxy)-3-methylphenyl)acetamide]
< 2.5 nM	Cc1c(Oc2ccnc3ccc(P(C)(C)=O)cc23)ccc(CC(=O)Nc2cc(C(C)(C)C)n[nH]2)c1F [Compound 383, N-(5-(tert-butyl)-1H-pyrazol-3-yl)-2-(4-((6-(dimethylphosphoryl)quinolin-4-yl)oxy)-2-fluoro-3-methylphenyl) acetamide]
11.6 nM	COc1ccc2ncnc(Oc3cnc(CC(=O)Nc4cc(C(C)(C)C)[nH]n4)c(F)c3)c2c1 [Compound 12, N-(5-(tert-butyl)-1H-pyrazol-3-yl)-2-(3-fluoro-5-((6-methoxyquinazolin-4-yl)oxy)pyridin-2-yl)acetamide]
< 2.5 nM	CC(C)c1cc(NC(=O)Cc2ccc(Oc3ccnc4ccc(S(C)(=O)=O)cc34)cc2F)nn1C [Compound 144, 2-(2-fluoro-4-((6-(methylsulfonyl)quinolin-4-yl)oxy)phenyl)-N-(5-isopropyl-1-methyl-1H-pyrazol-3-yl)acetamide]
< 2.5 nM	Cc1cc(CC(=O)Nc2cnn(C(C)(C)C)c2)c(F)cc1Oc1ccnc2ccc(C(=O)N3CCC(O)C3)cc12 (single isomer, unassigned) [Compound 375, N-(1-(tert-butyl)-1H-pyrazol-4-yl)-2-(2-fluoro-4-((6-(3-hydroxy-pyrrolidine-1-carbonyl)quinolin-4-yl)oxy)-5-methyl-phenyl) acetamide]
< 2.5 nM	Cc1cc(CC(=O)Nc2cnn(C(C)(C)C)c2)c(F)cc1Oc1ccnc2ccc(C(=O)N(C)CCO)cc12 [Compound 365, 4-(4-(2-((1-(tert-butyl)-1H-pyrazol-4-yl)amino)-2-oxoethyl)-5-fluoro-2-methyl-phenoxy)-N-(2-hydroxy-ethyl)-N-methyl-quinoline-6-carboxamide]
< 2.5 nM	Cc1cc(CC(=O)Nc2cnn(C(C)(C)C)c2)ccc1Oc1ccnc2ccc(N3CCC(O)C3=O)cc12 (single isomer, unassigned) [Compound 326, N-(1-(tert-butyl)-1H-pyrazol-4-yl)-2-(4-((6-(3-hydroxy-2-oxopyrrolidin-1-yl)quinolin-4-yl)oxy)-3-methylphenyl) acetamide]
36.4 nM	Cc1cc(CC(=O)Nc2cnn(C(C)(C)C)c2)ccc1Oc1ncnc2ccc(OC3CCN(CC(F)(F)F)CC3)cc12 [Compound 111, N-(1-(tert-butyl)-1H-pyrazol-4-yl)-2-(3-methyl-4-((6-((1-(2,2,2-trifluoroethyl)piperidin-4-yl)oxy)quinazolin-4-yl)oxy)phenyl) acetamide]
< 2.5 nM	Cc1c(Oc2ccnc3ccc(S(C)(=O)=O)cc23)ccc(CC(=O)Nc2cc(C(C)(C)CO)n[nH]2)c1F [Compound 329, 2-(2-fluoro-3-methyl-4-((6-(methylsulfonyl)quinolin-4-yl)oxy)phenyl)-N-(5-(1-hydroxy-2-methylpropan-2-yl)-1H-pyrazol-3-yl)acetamide]
< 2.5 nM	CC(C)(C)n1cc(NC(=O)Cc2ccc(Oc3ccnc4ccc(S(=O)(=O)C5CC5)cc34)cc2F)cn1 [Compound 131, N-(1-(tert-butyl)-1H-pyrazol-4-yl)-2-(4-((6-(cyclopropylsulfonyl)quinolin-4-yl)oxy)-2-fluorophenyl)acetamide]
< 2.5 nM	Cc1c(Oc2ccnc3ccc([S+](C)[O-])cc23)ccc(CC(=O)Nc2cnn(C(C)(C)C)c2)c1F (single isomer, unassigned) [Compound 324, N-(1-(tert-butyl)-1H-pyrazol-4-yl)-2-(2-fluoro-3-methyl-4-((6-(methylsulfinyl)quinolin-4-yl)oxy)phenyl)acetamide]
< 2.5 nM	COCCN(C)S(=O)(=O)c1ccc2nccc(Oc3ccc(CC(=O)Nc4cnn(C(C)(C)C)c4)cc3C)c2c1 [Compound 263, N-(1-(tert-butyl)-1H-pyrazol-4-yl)-2-(4-((6-(N-(2-methoxyethyl)-N-methylsulfamoyl)quinolin-4-yl)oxy)-3-methylphenyl)acetamide]
3.2 nM	CN1CCC(Cc2ccc3nccc(Oc4cnc(CC(=O)Nc5cnn(C(C)(C)C)c5)c(F)c4)c3c2)CC1 [Compound 139, N-(1-(tert-butyl)-1H-pyrazol-4-yl)-2-(3-fluoro-5-((6-((1-methylpiperidin-4-yl)methyl)quinolin-4-yl)oxy)pyridin-2-yl)acetamide]
< 2.5 nM	Cc1c(Oc2ccnc3ccc(S(=O)(=O)C4CCOC4)cc23)ccc(CC(=O)Nc2cnn(C(C)(C)C)c2)c1F (single isomer, unassigned) [Compound 251, N-(1-(tert-butyl)-1H-pyrazol-4-yl)-2-(2-fluoro-3-methyl-4-((6-((tetrahydrofuran-3-yl)sulfonyl)quinolin-4-yl)oxy)phenyl)acetamide]
< 2.5 nM	Cc1cc(CC(=O)Nc2cnn(C(C)(C)C)c2)c(F)cc1Oc1ccnc2ccc(C(=O)N3C[C@@H]4C[C@H]3CO4)cc12 [Compound 454, 2-(4-((6-((1S,4S)-2-oxa-5-azabicyclo[2.2.1]heptane-5-carbonyl)quinolin-4-yl)oxy)-2-fluoro-5-methylphenyl)-N-(1-(tert-butyl)-1H-pyrazol-4-yl)acetamide]
36.6 nM	CC(C)(C)c1ccnc(NC(=O)Cc2ccc(Oc3ncnc4ccc(F)cc34)cc2F)c1 [Compound 21, N-(4-(tert-butyl)pyridin-2-yl)-2-(2-fluoro-4-((6-fluoroquinazolin-4-yl)oxy)phenyl) acetamide]
< 2.5 nM	CCS(=O)(=O)c1ccc2nccc(Oc3ccc(CC(=O)Nc4cnn(C(C)(C)C)c4)cc3C(F)F)c2c1 [Compound 417, N-(1-(tert-butyl)-1H-pyrazol-4-yl)-2-(3-(difluoromethyl)-4-((6-(ethylsulfonyl)quinolin-4-yl)oxy)phenyl) acetamide]
5.5 nM	CC(C)(C)c1cc(NC(=O)Cc2ncc(Oc3ccnc4ccc(S(C)(=O)=O)cc34)cc2F)n[nH]1 [Compound 42, N-(5-(tert-butyl)-1H-pyrazol-3-yl)-2-(3-fluoro-5-((6-(methylsulfonyl)quinolin-4-yl)oxy)pyridin-2-yl)acetamide]
< 2.5 nM	Cc1cc(CC(=O)Nc2cnn(C(C)(C)C)c2)ccc1Oc1ccnc2cc(OC(F)F)c(S(C)(=O)=O)cc12 [Compound 218, N-(1-(tert-butyl)-1H-pyrazol-4-yl)-2-(4-((7-(difluoromethoxy)-6-(methylsulfonyl)quinolin-4-yl)oxy)-3-methylphenyl) acetamide]
< 2.5 nM	Cc1c(Oc2ccnc3ccc(S(=O)(=O)N4CC(C#N)C4)cc23)ccc(CC(=O)Nc2cnn(C(C)(C)C)c2)c1F [Compound 273, N-(1-(tert-butyl)-1H-pyrazol-4-yl)-2-(4-((6-((3-cyanoazetidin-1-yl)sulfonyl)quinolin-4-yl)oxy)-2-fluoro-3-methylphenyl)acetamide]
< 2.5 nM	Cc1cc(CC(=O)Nc2cnn(C(C)(C)C)c2)c(F)cc1Oc1ccnc2ccc(C(=O)NC3(C)CC3)cc12 [Compound 458, 4-(4-(2-((1-(tert-butyl)-1H-pyrazol-4-yl)amino)-2-oxoethyl)-5-fluoro-2-methylphenoxy)-N-(1-methylcyclopropyl)quinoline-6-carboxamide]
34.9 nM	COc1ccc2ncnc(Oc3ccc(CC(=O)Nc4cc(C(C)(C)CO)[nH]n4)c(F)c3)c2c1 [Compound 15, 2-(2-fluoro-4-((6-methoxy-quinazolin-4-yl)oxy)phenyl)-N-(5-(1-hydroxy-2-methylpropan-2-yl)-1H-pyrazol-3-yl)acetamide]
< 2.5 nM	CC(C)(C)n1cc(NC(=O)Cc2ccc(Oc3ccnc4ccc(CS(C)(=O)=O)cc34)cc2F)cn1 [Compound 75, N-(1-(tert-butyl)-1H-pyrazol-4-yl)-2-(2-fluoro-4-((6-((methylsulfonyl)methyl)quinolin-4-yl)oxy)phenyl)acetamide]
< 2.5 nM	CN1CCC(Oc2ccc3nccc(Oc4cnc(CC(=O)Nc5cc(C(C)(C)C)[nH]n5)c(F)c4)c3c2)CC1 [Compound 134, N-(5-(tert-butyl)-1H-pyrazol-3-yl)-2-(3-fluoro-5-((6-((1-methylpiperidin-4-yl)oxy)quinolin-4-yl)oxy)pyridin-2-yl)acetamide]
< 2.5 nM	Cc1cc(CC(=O)Nc2cnn(C(C)(C)C)c2)ccc1Oc1ccnc2ccc(S(=O)(=O)C3CCOCC3)cc12 [Compound 98, N-(1-(tert-butyl)-1H-pyrazol-4-yl)-2-(3-methyl-4-((6-((tetrahydro-2H-pyran-4-yl)sulfonyl)quinolin-4-yl)oxy)phenyl)acetamide]
< 2.5 nM	CC(C)(C)n1cc(NC(=O)Cc2ccc(Oc3ccnc4ccc(S(=O)(=O)C5CC5)cc34)c(C(F)F)c2)cn1 [Compound 418, N-(1-(tert-butyl)-1H-pyrazol-4-yl)-2-(4-((6-(cyclopropyl-sulfonyl)quinolin-4-yl)oxy)-3-(difluoromethyl)phenyl)acetamide]
< 2.5 nM	Cc1cc(CC(=O)Nc2cnn(C(C)(C)C)c2)c(F)cc1Oc1ccnc2ccc(C(=O)NC(C)(C)C)cc12 [Compound 456, N-(tert-butyl)-4-(4-(2-((1-(tert-butyl)-1H-pyrazol-4-yl)amino)-2-oxoethyl)-5-fluoro-2-methylphenoxy)quinoline-6-carboxamide]
< 2.5 nM	Cc1cc(CC(=O)Nc2cnn(C(C)(C)C)c2)ccc1Oc1ccnc2ccc(N3CCOCC3=O)cc12 [Compound 294, N-(1-(tert-butyl)-1H-pyrazol-4-yl)-2-(3-methyl-4-((6-(3-oxomorpholino)quinolin-4-yl)oxy)phenyl) acetamide]

Structure (SMILES)	IC50
Cc1c(Oc2ncnc3ccc(OC4CCNCC4)cc23)ccc(CC(=O)Nc2cnn(C(C)(C)C)c2)c1F [Compound 106, N-(1-(tert-butyl)-1H-pyrazol-4-yl)-2-(2-fluoro-3-methyl-4-((6-(piperidin-4-yloxy)quinazolin-4-yl)oxy)phenyl) acetamide]	< 2.5 nM
